This assay has as its system isolated guinea pig trachea contracted by leukotriene C4 or D4 (SRS-A). The assay is described as follows: Antagonism of leukotriene C4 or D4 induced contractions of isolated guinea pig trachea (SRS-A antagonist test). The format is cell-based. Conditions: inhibition of contraction induced by 8×10^-9 M LTD4 or LTC4, isolated guinea pig tracheal strip, indomethacin 5×10^-6 M present. How it is done: Male Hartley guinea pigs weighing 300-500 g are killed and exsanguinated. The trachea is immediately resected, cleaned of adhering connective tissue and cut into a spiral strip measuring approximately 3 to 5 mm ×20 to 25 mm. The strip is mounted in a 10 ml jacketed tissue bath by tying one end to a tissue hook and the opposite end to a Grass FT03C force-displacement transducer connected to an 8-channel Beckman Polygraph for recording contractile or relaxant responses. The tissue is bathed in modified Krebs' solution (37.5° C.) of the following composition (mM): NaCl, 119; KCl, 4.6; CaCl2, 1.8; MgCl2, 0.5; NaHCO3, 24.9; NaH2 PO4, 1.0; glucose, 11.1. Indomethacin, a cyclooxygenase inhibitor, is also present in a concentration of 5×10^-6 M. The tissue baths are constantly aerated with 95% O2 and 5% CO2. Tissues are placed under a passive tension of 2 g and allowed a 50 minute equilibration period before beginning experiments. This technique is standard for studying the effects of drugs on airway smooth muscle (Krell, R. D., J. Pharmacol. Exp. Ther. 211: 436, 1979; Kneussel, M. P. and Richardson, J. B., J. Appl. Physiol. 45: 307, 1978; Fleisch, J. H. and Calkins, P. J., J. Appl. Physiol. 41: 62, 1976).
Tissues are set up in groups of eight--four are used as time/vehicle controls and the remaining four for experimental compounds. No fewer than 4 tissues are used for each test compound. All tissues are exposed to 8×10^-9 M LTD4, following the 50 minute equilibration period, and the response recorded. This concentration of LTD4 is that which produces a contraction equal to about 70-80% of the maximal effect of the agonist in this tissue. The LTD4 is washed out for 20-25 minutes and the procedure repeated twice to insure that reproducible responses are being obtained with LTD4. LTC4, at a concentration of 8×10^-9 M, may be substituted for LTD4 in the same procedure.
Once tissue reproducibility has been established test compounds are added to four baths following the […] washout period. After a 10 minute incubation with test compound or vehicle 8×10^-9 M LT's are added and the response recorded. Percent inhibition by the test compound or percent change in vehicle controls is calculated, for each tissue, according to the following equation: % inhibition=100 multiplied by (mg tension increase of preceding response minus mg tension increase in presence of compound) divided by mg tension increase of preceding response. The means of the percent changes for vehicle controls and test compound are calculated and evaluated for significant differences by Students' t-test for unpaired data. Tissues exposed to agents were retested for responsiveness to LTD4 or C4 following a 25 minute washout period. […]
Take `CCCc1c(OCc2ccc(C(=O)O)cc2OC)ccc(C(C)=O)c1O` [Example 4, 3-Methoxy-4-(4-acetyl-3-hydroxy-2-propylphenoxy)methylbenzoic acid]: the “activity as an SRS-A antagonist” value is “Particularly active”.
The entry for `CCCc1c(OCc2ccc(C=CC(=O)O)cc2OC)ccc(C(C)=O)c1O` [Example 22, 3-Methoxy-4-(4-acetyl-3-hydroxy-2-propylphenoxy)methylcinnamic acid] is “Particularly active”; for `CCCc1c(OCc2ccc(OCC(=O)O)cc2)ccc(C(C)=O)c1O` [Example 7, 4-(4-Acetyl-3-hydroxy-2-propylphenoxy)methylphenoxyacetic acid] it is “Particularly active”; for `CCCc1c(OCc2ccc(/C=C/C(=O)O)cc2)ccc(C(C)=O)c1O` [Example 16, 4-(4-Acetyl-3-hydroxy-2-propylphenoxy)methylcinnamic acid] it is “Particularly active”.

The record behind these values is patent publication US4499299A, “Pharmaceutically active phenylcarboxylic acid derivatives” (ICI Americas Inc., priority 1981, dated 1985).
